Reference: patent US20160220569A1, “CDK4/6 Inhibitor Dosage Formulations For The Protection Of Hematopoietic Stem And Progenitor Cells During Chemotherapy” (G1 Therapeutics, Inc., priority 2015, published 2016)
Like-named read-outs stand apart in the source and are kept apart here.

Tests used:
[1] = Compound 1 PK dosed Days 1-5 with topotecan; type: in vivo, human; conditions: human, plasma, intravenous
Description: Analysis of plasma concentration versus time data for calculation of standard pharmacokinetic (PK) parameters following intravenous infusion administration was conducted using Phoenix WinNonlin version 6.3 using a nominal infusion duration and scheduled blood sampling times.

mouse splenocytes = test: Interferon gamma from splenocytes stimulated ex vivo with anti-CD3/antiCD28 after 5FU; type: in vivo, C57BL/6 Mice; conditions: mice pretreated with 100 mg/kg Compound 1, 5FU 50 mg/kg
Description: FIG. 59 is a bar graph of interferon gamma concentration (pg/ml) at day 2 and 7 for mouse splenocytes that were isolated and stimulated ex vivo with anti-CD3/antiCD28.

[2] = Repeat-dose IV toxicity in dogs; type: in vivo
Description: The magnitude and/or duration of this effect differed among cell lineages but was dose-related in all lineages. Effects on hematopoiesis were readily monitored by peripheral blood cell counts and were reversible when dosing stopped.
In both species, the toxicity profile was similar and the repeat-dose toxicity studies identified no observed adverse effect levels (NOAELs). […] This IV NOAEL was the basis for selecting a starting dose of 6 mg/m^2 for the first clinical trial, which is 1/10th of the lowest safe dose level in any animal study.

[3] = PK comparison of Compound 1 clinical data with literature PK of palbociclib; type: in vivo, human
bone marrow cells = test: Bone marrow EdU incorporation (S-phase) after single dose in dogs; type: in vivo; conditions: increasing single doses, 8 and 16 hours
[4] = human, plasma, 96 mg/m2, 96 mg/m^2 IV

## CN1CCN(c2ccc(Nc3ncc4cc5n(c4n3)C3(CCCCC3)CNC5=O)nc2)CC1 [Compound 1, 2′-((5-(4-methylpiperazin-1-yl)pyridin-2-yl)amino)-7′,8′-dihydro-6′H-spiro[cyclohexane-1,9′-pyrazino[1′,2′:1,5]pyrrolo[2,3-d]pyrimidin]-6′-one]
[1]; 200 mg/m^2 with Topotecan 1.25 mg/m^2 (Cohort 2), Day 4, Geometric Mean, read-out: Cmax
  Cmax: 739 ng/mL
[1]; 200 mg/m^2 with Topotecan 1.25 mg/m^2 (Cohort 2), Day 4, Geometric Mean, read-out: t½ (converted)
  half-life: 8.84 h
[1]; 200 mg/m^2 with Topotecan 1.25 mg/m^2 (Cohort 2), Day 4, Mean, read-out: Cmax
  Cmax: 752 ng/mL
[1]; 200 mg/m^2 with Topotecan 1.25 mg/m^2 (Cohort 2), Day 4, Mean, read-out: t½ (converted)
  half-life: 8.95 h
[1]; 200 mg/m^2 with Topotecan 1.25 mg/m^2 (Cohort 2), Day 4, Median, read-out: t½ (converted)
  half-life: 9.1 h
[1]; 200 mg/m^2 with Topotecan 1.25 mg/m^2 (Cohort 2), Day 4, individual subjects, read-out: Cmax
  Cmax: 904 ng/mL
[1]; 200 mg/m^2 with Topotecan 1.25 mg/m^2 (Cohort 2), Day 4, individual subjects, read-out: t½ (converted)
  half-life: 7.15 h
[1]; 200 mg/m^2 with Topotecan […]^2 (Cohort 1), Day 1, Geo. Mean, read-out: AUCinf
  AUC(0-inf): 2120 ng·h/mL
[1]; 200 mg/m^2 with Topotecan […]^2 (Cohort 1), Day 1, Geo. Mean, read-out: Cmax
  Cmax: 932 ng/mL
[1]; 200 mg/m^2 with Topotecan […]^2 (Cohort 1), Day 1, Geo. Mean, read-out: t½ (converted)
  half-life: 5.91 h
[1]; 200 mg/m^2 with Topotecan […]^2 (Cohort 1), Day 1, Mean, read-out: AUCinf
  AUC(0-inf): 2140 ng·h/mL
[1]; 200 mg/m^2 with Topotecan […]^2 (Cohort 1), Day 1, Mean, read-out: Cmax
  Cmax: 955 ng/mL
[1]; 200 mg/m^2 with Topotecan […]^2 (Cohort 1), Day 1, Mean, read-out: t½ (converted)
  half-life: 5.92 h
[1]; 200 mg/m^2 with Topotecan […]^2 (Cohort 1), Day 1, Median, read-out: AUCinf
  AUC(0-inf): 2140 ng·h/mL
[1]; 200 mg/m^2 with Topotecan […]^2 (Cohort 1), Day 1, Median, read-out: Cmax
  Cmax: 955 ng/mL
[1]; 200 mg/m^2 with Topotecan […]^2 (Cohort 1), Day 1, Median, read-out: t½ (converted)
  half-life: 5.92 h
[1]; 200 mg/m^2 with Topotecan […]^2 (Cohort 1), Day 1, individual subjects, read-out: AUCinf
  AUC(0-inf): 1840 ng·h/mL
[1]; 200 mg/m^2 with Topotecan […]^2 (Cohort 1), Day 1, individual subjects, read-out: t½ (converted)
  half-life: 5.6 h
[1]; 200 mg/m^2 with Topotecan […]^2 (Cohort 1), Day 4, Geometric Mean, read-out: Cmax
  Cmax: 993 ng/mL
[1]; 200 mg/m^2 with Topotecan […]^2 (Cohort 1), Day 4, Geometric Mean, read-out: t½ (converted)
  half-life: 7.98 h
[1]; 200 mg/m^2 with Topotecan […]^2 (Cohort 1), Day 4, Mean, read-out: Cmax
  Cmax: 999 ng/mL
[1]; 200 mg/m^2 with Topotecan […]^2 (Cohort 1), Day 4, Mean, read-out: t½ (converted)
  half-life: 8.06 h
[1]; 200 mg/m^2 with Topotecan […]^2 (Cohort 1), Day 4, Median, read-out: Cmax
  Cmax: 999 ng/mL
[1]; 200 mg/m^2 with Topotecan […]^2 (Cohort 1), Day 4, Median, read-out: t½ (converted)
  half-life: 8.06 h
[1]; 200 mg/m^2 with Topotecan […]^2 (Cohort 1), Day 4, individual subjects, read-out: t½ (converted)
  half-life: 6.96 h
[1]; Cohort 1 (Topotecan […]^2), Compound 1 200 mg/m^2, Day 1, mean, read-out: AUCinf averaged
  AUC(0-inf): 2140 ng·h/mL
[1]; Cohort 1 (Topotecan […]^2), Compound 1 200 mg/m^2, Day 1, mean, read-out: Cmax averaged
  Cmax: 955 ng/mL
[1]; Cohort 1 (Topotecan […]^2), Compound 1 200 mg/m^2, Day 1, mean, read-out: Half-lives averaged (converted)
  half-life: 5.92 h
[1]; Cohort 1 (Topotecan […]^2), Compound 1 200 mg/m^2, Day 4, mean, read-out: Half-lives averaged (converted)
  half-life: 8.06 h
[1]; Cohort 1 (Topotecan […]^2), Compound 1 200 mg/m^2, Day 4, mean, read-out: average Cmax
  Cmax: 999 ng/mL
[1]; Cohort 2 (Topotecan 1.25 mg/m^2), Compound 1 200 mg/m^2, Day 1, mean, read-out: AUCinf averaged
  AUC(0-inf): 2490 ng·h/mL
[1]; Cohort 2 (Topotecan 1.25 mg/m^2), Compound 1 200 mg/m^2, Day 1, mean, read-out: Cmax averaged
  Cmax: 904 ng/mL
[1]; Cohort 2 (Topotecan 1.25 mg/m^2), Compound 1 200 mg/m^2, Day 1, mean, read-out: Half-lives averaged (converted)
  half-life: 7.87 h
[1]; Cohort 2 (Topotecan 1.25 mg/m^2), Compound 1 200 mg/m^2, Day 4, mean, read-out: Half-lives averaged (converted)
  half-life: 8.95 h
[1]; Cohort 2 (Topotecan 1.25 mg/m^2), Compound 1 200 mg/m^2, Day 4, mean, read-out: average Cmax
  Cmax: 752 ng/mL
[1]; Cohort 2 (Topotecan 1.25 mg/m^2), Day 1, mean, read-out: concentration at 24.5 hours after the start of infusion, averaging
  concentration at 24.5 h: 19.5 ng/mL
[1]; Cohort 2 (Topotecan 1.25 mg/m^2), Day 4, mean, read-out: concentration at 24.5 hours after dosing, averaged
  concentration at 24.5 h: 22.7 ng/mL
[1]; Cohort 3 (Topotecan 0.75 mg/m^2), Compound 1 200 mg/m^2, Day 1, mean, read-out: AUCinf averaged
  AUC(0-inf): 2200 ng·h/mL
[1]; Cohort 3 (Topotecan 0.75 mg/m^2), Compound 1 200 mg/m^2, Day 1, mean, read-out: Cmax averaged
  Cmax: 1140 ng/mL
[1]; Cohort 3 (Topotecan 0.75 mg/m^2), Compound 1 200 mg/m^2, Day 1, mean, read-out: Half-lives averaged (converted)
  half-life: 7.4 h
[1]; Cohort 3 (Topotecan 0.75 mg/m^2), Compound 1 200 mg/m^2, Day 4, mean, read-out: Half-lives averaged (converted)
  half-life: 8.81 h
[1]; Cohort 3 (Topotecan 0.75 mg/m^2), Compound 1 200 mg/m^2, Day 4, mean, read-out: average Cmax
  Cmax: 1330 ng/mL
[1]; Cohort 3 (Topotecan 0.75 mg/m^2), Day 1, mean, read-out: concentration at 24.5 hours after the start of infusion, averaging
  concentration at 24.5 h: 13.3 ng/mL
[1]; Cohort 3 (Topotecan 0.75 mg/m^2), Day 4, mean, read-out: concentration at 24.5 hours after dosing, averaged
  concentration at 24.5 h: 18.2 ng/mL
Mouse splenocytes
  interferon gamma levels: did not decrease significantly
[2]; dog, in vivo, 7 days
  dose with clinically significant leukopenia: 300 mg/m^2
[2]; dogs, daily doses for 6 days
  dose leading to morbidity and mortality: 900 mg/m^2
[3]; 96 mg/m^2 IV
  CL/F: 121 L/h
[3]; Compound 1
  accumulation in blood plasma on consecutive days: does not show accumulation
[3]; […]^2 IV
  CL/F: 126 L/h
[3]; [4]
  AUC(0-inf): 1380 ng·h/mL
  Cmax: 932 ng/mL
  half-life: 8.6 h
[3]; human, plasma, iv, […]2
  half-life: 7.9 h
Bone marrow cells
  bone marrow cells in S phase: decrease in the number of cells in S phase
